# Measurements published in PubChem BioAssay AID1259408 (Genetic Toxicology Data Bank (GENE-TOX), 2018).
# Active and inactive are the calls of the source. The rule behind the calls is not given here.
# System: GENE-TOX genotoxicity assays, various organisms and cells
# Test: GENE-TOX mutagenicity studies
# Conditions: for call: Assay Type: In vivo carcinogenicity studies
# [1] = Species/Cell Type: Salmonella typhimurium (one or more of the five standard strains: TA98, TA100, TA1535, TA1537, and TA1538), Assay Type: Histidine reverse gene mutation, Ames assay, Assay Code: SALT, Evaluation Type: Evaluation A (Pre-1980)
# [2] = Species/Cell Type: Nonhuman, Assay Type: Sister-chromatid exchange (SCE) in vitro, Assay Code: SC2+D, Dose Response: With dose response, Evaluation Type: Evaluation B (Post-1980)
# [3] = Species/Cell Type: Salmonella typhimurium (one or more of the five standard strains: TA98, TA100, TA1535, TA1537, and TA1538), Assay Type: Histidine reverse gene mutation, Ames assay, Assay Code: SAL+*, Activation: With metabolic activation, Evaluation Type: Evaluation A (Pre-1980)
# [4] = Species/Cell Type: Salmonella typhimurium (one or more of the five standard strains: TA98, TA100, TA1535, TA1537, and TA1538), Assay Type: Histidine reverse gene mutation, Ames assay, Assay Code: SAL+, Evaluation Type: Evaluation A (Pre-1980)
# [5] = Species/Cell Type: Bacillus subtilis (H17 vs M45), Assay Type: Rec-assay, spot test, DNA effects (bacterial DNA repair), Assay Code: REWT, Evaluation Type: Evaluation A (Pre-1980)
# [6] = Species/Cell Type: Saccharomyces cerevisiae, Assay Type: Mitotic recombination or gene conversion, Assay Code: YEH-, Evaluation Type: Evaluation A (Pre-1980)
# [7] = Species/Cell Type: Chinese hamster lung (V79) cells, Assay Type: Forward gene mutation at the HPRT or ouabain locus, Assay Code: V79-*, Activation: With metabolic activation, Evaluation Type: Evaluation A (Pre-1980)
# [8] = Species/Cell Type: Nonhuman, Assay Code: CCG+, Evaluation Type: Evaluation A (Pre-1980)
smiles,measurement,setting,value
CN(C)CCC=C1c2ccccc2C2OC2c2ccccc21 (stereo not given),mutagenic call,[1],no conclusion
c1ccc2ncccc2c1,mutagenic call,[2],active; positive
same,mutagenic call,"Species/Cell Type: Nonhuman, Assay Type: Sister-chromatid exchange (SCE) in vitro, Assay Code: SC2-, Evaluation Type: Evaluation A (Pre-1980)",inactive; negative
same,mutagenic call,[3],active; positive
CC(=O)C(N=Nc1ccc(-c2ccc(N=NC(C(C)=O)C(=O)Nc3ccccc3)c(Cl)c2)cc1Cl)C(=O)Nc1ccccc1 (stereo not given),call,"Species/Cell Type: Nonhuman, Assay Code: CCG-, Evaluation Type: Evaluation A (Pre-1980)",inactive; negative
[Cl][Pt-2]([Cl])([Cl])[Cl],mutagenic call,"Species/Cell Type: Chinese hamster ovary (CHO) cells, Assay Type: Forward gene mutation at the HPRT locus, Assay Code: CHOT, Evaluation Type: Evaluation B (Post-1980)",no conclusion
C[S-].C[S-].N#[O+].N#[O+].N#[O+].N#[O+].[Fe].[Fe],mutagenic call,"Species/Cell Type: Nonhuman, Assay Type: Sister-chromatid exchange (SCE) in vitro, Assay Code: SC2T, Evaluation Type: Evaluation B (Post-1980)",no conclusion
CCNC(N)=O,mutagenic call,"Species/Cell Type: Salmonella typhimurium, Assay Type: Forward and reverse gene mutation, host-mediated assay, Assay Code: HMA+, Evaluation Type: Evaluation A (Pre-1980)",active; positive
CCCCN(CCO)N=O,mutagenic call,[4],active; positive
CN=C(N)NC(=O)Nc1c(C)cccc1C,mutagenic call,"Species/Cell Type: Mammalian polychromatic erythrocytes, Assay Type: Micronucleus test, chromosome aberrations, Assay Code: MNTT, Evaluation Type: Evaluation B (Post-1980)",no conclusion
Clc1ccccc1Cl,mutagenic call,"Species/Cell Type: Mammalian polychromatic erythrocytes, Assay Type: Micronucleus test, chromosome aberrations, Assay Code: MNT+, Evaluation Type: Evaluation B (Post-1980)",active; positive
Cc1c(C2(c3cc(C(C)C)c(O)c(Br)c3C)OS(=O)(=O)c3ccccc32)cc(C(C)C)c(O)c1Br,mutagenic call,[5],no conclusion
CC[C@H](C)[C@@H]1NC(=O)CNC(=O)[C@@H]2Cc3c([nH]c4cc(O)ccc34)S(=O)C[C@H](NC(=O)CNC1=O)C(=O)N[C@@H](CC(N)=O)C(=O)N1C[C@H](O)C[C@H]1C(=O)N[C@@H]([C@@H](C)[C@@H](O)CO)C(=O)N2 (stereo not given in full),mutagenic call,"Species/Cell Type: Drosophila melanogaster, Assay Type: Aneuploidy, whole sex chromosome loss, chromosome aberrations, Assay Code: DACT, Evaluation Type: Evaluation A (Pre-1980)",no conclusion
CCCCOC(=O)C=[N+]=[N-],mutagenic call,"Species/Cell Type: Arabidopsis species, Assay Type: Gene mutation, Assay Code: ARM+, Evaluation Type: Evaluation A (Pre-1980)",active; positive
CC(=O)Nc1ccc2c(c1)Cc1cc(O)ccc1-2,mutagenic call,"Species/Cell Type: Escherichia coli polA (W3110 vs P3478), Assay Type: Rec-assay, DNA effects (bacterial DNA repair), Assay Code: RE2+, Evaluation Type: Evaluation A (Pre-1980)",active; positive
same,mutagenic call,"Species/Cell Type: Escherichia coli polA (W3119 vs P3478), Assay Type: Rec-assay, DNA effects (bacterial DNA repair), Assay Code: RE1T, Evaluation Type: Evaluation A (Pre-1980)",no conclusion
same,mutagenic call,"Species/Cell Type: Human diploid fibroblasts, Assay Type: Unscheduled DNA synthesis (UDS) in vitro, DNA effects, Assay Code: UDH-, Evaluation Type: Evaluation A (Pre-1980)",inactive; negative
same,mutagenic call,"Species/Cell Type: Human, Assay Type: Sister-chromatid exchange (SCE) in vitro, Assay Code: SC1-, Evaluation Type: Evaluation B (Post-1980)",inactive; negative
same,mutagenic call,[6],inactive; negative
same,mutagenic call,[3],active; positive
same,mutagenic call,"Species/Cell Type: Salmonella typhimurium, Assay Type: Forward and reverse gene mutation, host-mediated assay, Assay Code: HMA-, Evaluation Type: Evaluation A (Pre-1980)",inactive; negative
Cc1c2ccccc2c(C)c2c1ccc1cccc(C)c12,mutagenic call,[7],inactive; negative
S=C=S,mutagenic call,"Species/Cell Type: Human, Sex: Male, Assay Type: Sperm morphology, Assay Code: SPH+, Evaluation Type: Evaluation A (Pre-1980)",active; positive
Nc1ccc2c(c1)-c1ccccc1C2,mutagenic call,"Species/Cell Type: Fischer rat embryo (RLV/1706) cells, Assay Type: Cell transformation, viral enhanced, Assay Code: CTR-, Evaluation Type: Evaluation A (Pre-1980)",inactive; negative
O=P(N1CC1)(N1CC1)N1CCN(P(=O)(N2CC2)N2CC2)CC1,mutagenic call,"Species/Cell Type: Human lymphocytes, Assay Type: Sister-chromatid exchange (SCE) in vitro, Assay Code: SCL+D, Dose Response: With dose response, Evaluation Type: Evaluation B (Post-1980)",active; positive
same,mutagenic call,"Species/Cell Type: Human, Assay Type: Sister-chromatid exchange (SCE) in vitro, Assay Code: SC1+D, Dose Response: With dose response, Evaluation Type: Evaluation B (Post-1980)",active; positive
same,mutagenic call,[2],active; positive
CC(=O)OC[C@]12CCC(C)=C[C@H]1O[C@@H]1[C@H](O)[C@@H](OC(C)=O)[C@@]2(C)[C@]12CO2,mutagenic call,[6],inactive; negative
same,mutagenic call,[1],no conclusion
Cc1c2ccccc2cc2ccc3ccccc3c12,mutagenic call,[2],active; positive
same,mutagenic call,[3],active; positive
Cc1c(C)c2c(c(C)c1O)CCC(C)(CCCC(C)CCCC(C)CCCC(C)C)O2 (stereo not given),mutagenic call,"Species/Cell Type: Human lymphocytes, Assay Type: Sister-chromatid exchange (SCE) in vitro, Assay Code: SCLT, Evaluation Type: Evaluation B (Post-1980)",no conclusion
same,mutagenic call,"Species/Cell Type: Human, Assay Type: Sister-chromatid exchange (SCE) in vitro, Assay Code: SC1T, Evaluation Type: Evaluation B (Post-1980)",no conclusion
S=[Se]=S,call,[8],active; positive
Nc1nc(N)nc(N)n1,mutagenic call,"Species/Cell Type: Drosophila melanogaster, Assay Type: Sex-linked recessive lethal gene mutation, Assay Code: SRLT, Evaluation Type: Evaluation A (Pre-1980)",no conclusion
CCCCNP(=O)(N1CC1)N1CC1,mutagenic call,"Species/Cell Type: Drosophila melanogaster, Assay Type: Sex-linked recessive lethal gene mutation, Assay Code: SRL+, Evaluation Type: Evaluation A (Pre-1980)",active; positive
same,mutagenic call,"Species/Cell Type: Nonhuman, Assay Type: Chromosome aberrations in vitro, Assay Code: CY&+, Evaluation Type: Evaluation A (Pre-1980)",active; positive
same,mutagenic call,"Species/Cell Type: Schizosaccharomyces pombe, Assay Type: Reverse gene mutation, Assay Code: YEZ+, Evaluation Type: Evaluation A (Pre-1980)",active; positive
CCN(Cc1cccc(S(=O)(=O)O)c1)c1ccc(C(=C2C=CC(=[N+](CC)Cc3cccc(S(=O)(=O)[O-])c3)C=C2)c2ccc(S(=O)(=O)O)cc2)cc1,mutagenic call,[5],no conclusion
same,mutagenic call,"Species/Cell Type: Bacillus subtilis (H17 vs M45T), Assay Type: Rec-assay, spot test, DNA effects (bacterial DNA repair), Assay Code: REXT, Evaluation Type: Evaluation A (Pre-1980)",no conclusion
same,mutagenic call,"Species/Cell Type: Salmonella typhimurium (one or more of the five standard strains: TA98, TA100, TA1535, TA1537, and TA1538), Assay Type: Histidine reverse gene mutation, Ames assay, Assay Code: SAL-, Evaluation Type: Evaluation A (Pre-1980)",inactive; negative
Cc1c2c(c(CO)c3ccccc13)[C@H](O)[C@@H](O)c1ccccc1-2,mutagenic call,[7],inactive; negative
same,call,"Species/Cell Type: Nonhuman, Assay Code: CCGT, Evaluation Type: Evaluation A (Pre-1980)",no conclusion
Cc1cccn2c1nc1ccc(N)nc12,mutagenic call,"Species/Cell Type: Human, Assay Type: Sister-chromatid exchange (SCE) in vitro, Assay Code: SC1+D*, Activation: With metabolic activation, Dose Response: With dose response, Evaluation Type: Evaluation B (Post-1980)",active; positive
COC(=O)Cc1ccc(OC)c(CSC(=N)N)c1,mutagenic call,"Species/Cell Type: Saccharomyces cerevisiae, Assay Type: Reverse gene mutation, Assay Code: YERT, Evaluation Type: Evaluation A (Pre-1980)",no conclusion
CCCCCC[C@@H](O)C1C2=C(CC([C@H](O)C3CCCC(=O)O3)CC3=C(C(=O)OC3=O)[C@@H]1O)C(=O)OC2=O (stereo not given in full),mutagenic call,"Species/Cell Type: Rodents, Sex: Male, Assay Type: Dominant lethal test, Assay Code: DLT-, Evaluation Type: Evaluation A (Pre-1980)",inactive; negative
O=[N+]([O-])c1cccc2ncccc12,mutagenic call,[4],active; positive
C1=Cc2c(ccc3c2ccc2ccccc23)C1,mutagenic call,[3],active; positive
FC(F)Cl,mutagenic call,"Species/Cell Type: Tradescantia species, Assay Type: Gene mutation, Assay Code: TRM+D, Dose Response: With dose response, Evaluation Type: Evaluation A (Pre-1980)",active; positive
Clc1ccc(Oc2cc(Cl)c(Cl)cc2Cl)cc1,mutagenic call,"Species/Cell Type: Saccharomyces cerevisiae, Assay Type: Forward gene mutation, Assay Code: YEF-, Evaluation Type: Evaluation A (Pre-1980)",inactive; negative
same,mutagenic call,"Species/Cell Type: Saccharomyces cerevisiae, Assay Type: Mitotic recombination or gene conversion, Assay Code: YEC-, Evaluation Type: Evaluation A (Pre-1980)",inactive; negative
same,mutagenic call,[6],inactive; negative
CCCCOc1ccc(CC(=O)NOC(=O)CC)cc1,mutagenic call,"Species/Cell Type: Nonhuman, Assay Type: Sister-chromatid exchange (SCE) in vitro, Assay Code: SC2+, Evaluation Type: Evaluation B (Post-1980)",active; positive
O=C1NCCN1c1ncc([N+](=O)[O-])s1,mutagenic call,"Species/Cell Type: Escherichia coli WP2, Assay Type: Tryptophan reverse gene mutation, Assay Code: WP2+D, Dose Response: With dose response, Evaluation Type: Evaluation A (Pre-1980)",active; positive
same,mutagenic call,"Species/Cell Type: Escherichia coli WP2 UVRA, Assay Type: Tryptophan reverse gene mutation, Assay Code: WPU+D, Dose Response: With dose response, Evaluation Type: Evaluation A (Pre-1980)",active; positive
same,mutagenic call,"Species/Cell Type: Human, Sex: Male, Assay Type: Sperm morphology, Assay Code: SPH-, Evaluation Type: Evaluation A (Pre-1980)",inactive; negative
same,mutagenic call,"Species/Cell Type: Neurospora crassa, Assay Type: Forward gene mutation, Assay Code: NEF+, Evaluation Type: Evaluation A (Pre-1980)",active; positive
same,call,[8],active; positive
same,mutagenic call,"Species/Cell Type: Saccharomyces cerevisiae, Assay Type: Mitotic recombination or gene conversion, Assay Code: YEH+, Evaluation Type: Evaluation A (Pre-1980)",active; positive
same,mutagenic call,[4],active; positive
